Results: patent US20230081426A1, “COMPOUNDS AND METHODS FOR KRAS MODULATION AND INDICATIONS THEREFOR” (Plexxikon Inc., priority 2020, published 2023)

What follows are compounds tested against T1, G12D-mutant human KRAS (amino acid residues 1-188) (Homo sapiens, UniProt P01116, G12D) (assay: KRAS Binding Disruption Assay (AlphaScreen; biotinylated KRpep-2d analogue or RAF1-RBD), G12D). Details: KRAS G12D; geometric mean; read-out: KRAS GMean IC50 (uM) MUTATION: G12D.
T1 construct: G12D or G12C-mutant human KRAS (amino acid residues 1-188) with FLAG tag; made in house; host or cells: E. coli
T1 sequence (P01116 1-188 isoform P01116-2 G12D): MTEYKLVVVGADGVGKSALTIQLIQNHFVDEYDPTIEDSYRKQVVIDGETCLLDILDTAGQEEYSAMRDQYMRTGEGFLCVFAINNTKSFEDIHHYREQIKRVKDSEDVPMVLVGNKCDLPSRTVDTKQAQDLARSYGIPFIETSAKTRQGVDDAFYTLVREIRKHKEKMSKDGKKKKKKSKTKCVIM
Outline: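 Displacement format with mutant KRAS, biotinylated KRpep-2d analogue or RAF1-RBD (5-20 nM each) at pH 7.5 with 5 mM MgCl2.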
With `Cc1ccc2[nH]ncc2c1-c1c(Cl)cc2c(N3C[C@H]4CC[C@@H](C3)N4)nc(OCC34CCCN3CCC4)nc2c1F` [P-0523, 4-((1R,5S)-3,8-diazabicyclo[3.2.1]octan-3-yl)-6-chloro-8-fluoro-7-(5-methyl-1H-indazol-4-yl)-2-((tetrahydro-1H-pyrrolizin-7a(5H)-yl)methoxy)quinazoline] the IC50 was 0.0001 to 10 µM.
Work on `OCC1(CNc2nc(N3C[C@H]4CC[C@@H](C3)N4)c3ccc(-c4cc(O)cc5ccccc45)c(F)c3n2)CC1` [P-0582, 4-(4-((1R,5S)-3,8-diazabicyclo[3.2.1]octan-3-yl)-8-fluoro-2-(((1-(hydroxymethyl)cyclopropyl)methyl)amino)quinazolin-7-yl)naphthalen-2-ol] yielded an IC50 of 0.0001 to 10 µM.
Work on `Fc1c(-c2c[nH]c3cncc(Cl)c23)ccc2c(N3C[C@H]4CC[C@@H](C3)N4)nc(OCC34CCCN3CCC4)nc12` [P-0566, 4-((1R,5S)-3,8-diazabicyclo[3.2.1]octan-3-yl)-7-(4-chloro-1H-pyrrolo[2,3-c]pyridin-3-yl)-8-fluoro-2-((tetrahydro-1H-pyrrolizin-7a(5H)-yl)methoxy)quinazoline] yielded an IC50 of 0.0001 to 10 µM.
In the case of `Nc1ccc(F)c(-c2c(F)cc3c(N4C[C@H]5CC[C@@H](C4)N5)nc(OCC45CCCN4CCC5)nc3c2F)c1` [P-0608, 3-(4-((1R,5S)-3,8-diazabicyclo[3.2.1]octan-3-yl)-6,8-difluoro-2-((tetrahydro-1H-pyrrolizin-7a(5H)-yl)methoxy)quinazolin-7-yl)-4-fluoroaniline], the IC50 is reported as 0.0001 to 10 µM.
In the case of `Oc1cc(-c2ccc3c(N4C[C@H]5CC[C@@H](C4)N5)nc(N4CCC5(CCOC5)C4)nc3c2F)c2ccccc2c1` (stereo partly drawn) [P-0528, 4-(4-((1R,5S)-3,8-diazabicyclo[3.2.1]octan-3-yl)-8-fluoro-2-(2-oxa-7-azaspiro[4.4]nonan-7-yl)quinazolin-7-yl)naphthalen-2-ol], the IC50 is reported as 0.0001 to 10 µM.
Compound `COCCc1cccc2[nH]cc(-c3ccc4c(N5C[C@H]6CC[C@@H](C5)N6)nc(OCC56CCCN5CCC6)nc4c3F)c12` [P-0573, 4-((1R,5S)-3,8-diazabicyclo[3.2.1]octan-3-yl)-8-fluoro-7-(4-(2-methoxyethyl)-1H-indol-3-yl)-2-((tetrahydro-1H-pyrrolizin-7a(5H)-yl)methoxy)quinazoline] has an IC50 of 0.0001 to 10 µM.
Work on `CC(C)(CO)COc1nc(N2C[C@H]3CC[C@@H](C2)N3)c2ccc(-c3cccc4cccc(Cl)c34)c(F)c2n1` [P-0541, 3-((4-((1R,5S)-3,8-diazabicyclo[3.2.1]octan-3-yl)-7-(8-chloronaphthalen-1-yl)-8-fluoroquinazolin-2-yl)oxy)-2,2-dimethylpropan-1-ol] yielded an IC50 of 0.0001 to 10 µM.
In the case of `Oc1cc(-c2ccc3c(N4C[C@H]5CC[C@@H](C4)N5)nc(N4CC5(CCNC5)C4)nc3c2F)c2ccccc2c1` [P-0599], the IC50 is reported as 0.0001 to 10 µM.
In the case of `NC(=O)CN1[C@@H]2CC[C@H]1CN(c1nc(OCC34CCCN3CCC4)nc3c(F)c(-c4cc(O)cc5ccccc45)ccc13)C2` [P-0550, 2-((1R,5S)-3-(8-fluoro-7-(3-hydroxynaphthalen-1-yl)-2-((tetrahydro-1H-pyrrolizin-7a(5H)-yl)methoxy)quinazolin-4-yl)-3,8-diazabicyclo[3.2.1]octan-8-yl)acetamide], the IC50 is reported as 0.0001 to 10 µM.
Work on `Oc1cc(-c2ccc3c(N4C[C@H]5CC[C@@H](C4)N5)nc(N4CC5(CCCNC5)C4)nc3c2F)c2ccccc2c1` [P-0600, 4-(4-((1R,5S)-3,8-diazabicyclo[3.2.1]octan-3-yl)-8-fluoro-2-(2,6-diazaspiro[3.5]nonan-2-yl)quinazolin-7-yl)naphthalen-2-ol] yielded an IC50 of 0.0001 to 10 µM.
`CC(C)(CNS(C)(=O)=O)COc1nc(N2C[C@H]3CC[C@@H](C2)N3)c2ccc(-c3cc(O)cc4ccccc34)c(F)c2n1` [P-0590, N-(3-((4-((1R,5S)-3,8-diazabicyclo[3.2.1]octan-3-yl)-8-fluoro-7-(3-hydroxynaphthalen-1-yl)quinazolin-2-yl)oxy)-2,2-dimethylpropyl)methanesulfonamide] was tested, and the IC50 was 0.0001 to 10 µM.
`O=[N+]([O-])c1cccc2cncc(-c3ccc4c(N5C[C@H]6CC[C@@H](C5)N6)nc(OCC56CCCN5CCC6)nc4c3F)c12` [P-0539, 4-((1R,5S)-3,8-diazabicyclo[3.2.1]octan-3-yl)-8-fluoro-7-(5-nitroisoquinolin-4-yl)-2-((tetrahydro-1H-pyrrolizin-7a(5H)-yl)methoxy)quinazoline] showed an IC50 of 0.0001 to 10 µM.
`OCC1(C(F)(F)F)CCN(c2nc(N3C[C@H]4CC[C@@H](C3)N4)c3ccc(-c4cc(O)cc5ccccc45)c(F)c3n2)C1` (stereo partly drawn) [P-0576, 4-(4-((1R,5S)-3,8-diazabicyclo[3.2.1]octan-3-yl)-8-fluoro-2-(3-(hydroxymethyl)-3-(trifluoromethyl)pyrrolidin-1-yl)quinazolin-7-yl)naphthalen-2-ol] was tested, and the IC50 was 0.0001 to 10 µM.
In the case of `OCC(COc1nc(N2C[C@H]3CC[C@@H](C2)N3)c2ccc(-c3cc(O)cc4ccccc34)c(F)c2n1)c1ccccc1` (stereo partly drawn) [P-0584, 4-(4-((1R,5S)-3,8-diazabicyclo[3.2.1]octan-3-yl)-8-fluoro-2-(3-hydroxy-2-phenylpropoxy)quinazolin-7-yl)naphthalen-2-ol], the IC50 is reported as 0.0001 to 10 µM.
In the case of `CN1CCC[C@H]1COc1nc(N2C[C@H]3CC[C@@H](C2)N3)c2cnc(-c3cc(O)cc4ccccc34)cc2n1` [P-0004, 4-(4-((1R,5S)-3,8-diazabicyclo[3.2.1]octan-3-yl)-2-(((S)-1-methylpyrrolidin-2-yl)methoxy)pyrido[4,3-d]pyrimidin-7-yl)naphthalen-2-ol], the IC50 is reported as 0.0001 to 10 µM.
`CNCC1CN(c2nc(N3C[C@H]4CC[C@@H](C3)N4)c3ccc(-c4cc(O)cc5ccccc45)c(F)c3n2)C1` [P-0557, 4-(4-((1R,5S)-3,8-diazabicyclo[3.2.1]octan-3-yl)-8-fluoro-2-(3-((methylamino)methyl)azetidin-1-yl)quinazolin-7-yl)naphthalen-2-ol] showed an IC50 of 0.0001 to 10 µM.
`CC(C)(C)OC(=O)NCCN1[C@@H]2CC[C@H]1CN(c1nc(OCC34CCCN3CCC4)nc3c(F)c(-c4cc(O)cc5ccccc45)ccc13)C2` [P-0551, tert-butyl (2-((1R,5S)-3-(8-fluoro-7-(3-hydroxynaphthalen-1-yl)-2-((tetrahydro-1H-pyrrolizin-7a(5H)-yl)methoxy)quinazolin-4-yl)-3,8-diazabicyclo[3.2.1]octan-8-yl)ethyl)carbamate] gave an IC50 of 0.0001 to 10 µM.
`Oc1cc(-c2c(Cl)cc3c(N4C[C@H]5CC[C@@H](C4)N5)nc(OCCCN4CCC(F)(F)C4)nc3c2F)c2ccccc2c1` [P-0532, 4-(4-((1R,5S)-3,8-diazabicyclo[3.2.1]octan-3-yl)-6-chloro-2-(3-(3,3-difluoropyrrolidin-1-yl)propoxy)-8-fluoroquinazolin-7-yl)naphthalen-2-ol] was tested, and the IC50 was 0.0001 to 10 µM.
`OCC1(COc2nc(N3C[C@H]4CC[C@@H](C3)N4)c3ccc(-c4cc(O)cc5ccccc45)c(F)c3n2)CCCC1` [P-0588, 4-(4-((1R,5S)-3,8-diazabicyclo[3.2.1]octan-3-yl)-8-fluoro-2-((1-(hydroxymethyl)cyclopentyl)methoxy)quinazolin-7-yl)naphthalen-2-ol] was tested, and the IC50 was 0.0001 to 10 µM.
`O=C(O)CN1[C@@H]2CC[C@H]1CN(c1nc(OCC34CCCN3CCC4)nc3c(F)c(-c4cc(O)cc5ccccc45)ccc13)C2` [P-0552, 2-((1R,5S)-3-(8-fluoro-7-(3-hydroxynaphthalen-1-yl)-2-((tetrahydro-1H-pyrrolizin-7a(5H)-yl)methoxy)quinazolin-4-yl)-3,8-diazabicyclo[3.2.1]octan-8-yl)acetic acid] was tested, and the IC50 was 0.0001 to 10 µM.
Compound `CN(C)CC1CN(c2nc(N3C[C@H]4CC[C@@H](C3)N4)c3ccc(-c4cc(O)cc5ccccc45)c(F)c3n2)C1` [P-0565, 4-(4-((1R,5S)-3,8-diazabicyclo[3.2.1]octan-3-yl)-2-(3-((dimethylamino)methyl)azetidin-1-yl)-8-fluoroquinazolin-7-yl)naphthalen-2-ol] has an IC50 of 0.0001 to 10 µM.
Work on `Oc1cc(-c2ccc3c(N4C[C@H]5CC[C@@H](C4)N5)nc(N4CC5(CCC5O)C4)nc3c2F)c2ccccc2c1` (stereo partly drawn) [P-0555, 2-(4-((1R,5S)-3,8-diazabicyclo[3.2.1]octan-3-yl)-8-fluoro-7-(3-hydroxynaphthalen-1-yl)quinazolin-2-yl)-2-azaspiro[3.3]heptan-5-ol] yielded an IC50 of 0.0001 to 10 µM.
Work on `C#Cc1cccc2cccc(-c3ccc4c(N5C[C@H]6CC[C@@H](C5)N6)nc(OCC56CCCN5CCC6)nc4c3F)c12` [P-0521, 4-((1R,5S)-3,8-diazabicyclo[3.2.1]octan-3-yl)-7-(8-ethynylnaphthalen-1-yl)-8-fluoro-2-((tetrahydro-1H-pyrrolizin-7a(5H)-yl)methoxy)quinazoline] yielded an IC50 of 0.0001 to 10 µM.
For `CC(=O)NCCN1[C@@H]2CC[C@H]1CN(c1nc(OCC34CCCN3CCC4)nc3c(F)c(-c4cc(O)cc5ccccc45)ccc13)C2` [P-0544, N-(2-((1R,5S)-3-(8-fluoro-7-(3-hydroxynaphthalen-1-yl)-2-((tetrahydro-1H-pyrrolizin-7a(5H)-yl)methoxy)quinazolin-4-yl)-3,8-diazabicyclo[3.2.1]octan-8-yl)ethyl)acetamide], the IC50 was 0.0001 to 10 µM.
For `CN1CCC[C@H]1COc1nc(N2C[C@H]3CC[C@@H](C2)N3C(=O)c2n[nH]c(=O)[nH]2)c2ccc(-c3cc(O)cc4ccccc34)cc2n1` [P-0113, 5-((1R,5S)-3-(7-(3-hydroxynaphthalen-1-yl)-2-(((S)-1-methylpyrrolidin-2-yl)methoxy)quinazolin-4-yl)-3,8-diazabicyclo[3.2.1]octane-8-carbonyl)-2,4-dihydro-3H-1,2,4-triazol-3-one], the IC50 was 10 to 100 µM.
In the case of `CN1C[C@@H](F)C[C@H]1COc1nc(N2C[C@H]3CC[C@@H](C2)N3)c2ccc(-c3cc(O)cc4ccccc34)c(F)c2n1` [P-0554, 4-(4-((1R,5S)-3,8-diazabicyclo[3.2.1]octan-3-yl)-8-fluoro-2-(((2S,4S)-4-fluoro-1-methylpyrrolidin-2-yl)methoxy)quinazolin-7-yl)naphthalen-2-ol], the IC50 is reported as 0.0001 to 10 µM.
